From US20230024302A1, “2,3,5-TRISUBSTITUTED PYRAZOLO[1,5-A]PYRIMIDINE COMPOUNDS” (Arcus Biosciences, Inc., priority 2019, published 2023)
Each block holds one molecule with its values, some of them ahead of it.

Tests used:
PI3Kγ (p120γ) = target: T1, PI3Kγ (p120γ) (Homo sapiens, UniProt P48736); experiment: Inhibition of PI3K kinase activity (ADP Glo), PI3Kγ; details: Table 1, p120γ, read-out: biochemical potency (PI3Kγ IC50)
T1 construct: purchased Promega V1761
Procedure, shortened: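 Recombinant p120γ (8 nM, 2× stock) was preincubated with compound for 1 h at rt in HEPES pH 7.4, NaCl, MgCl2 and 0.05% BSA. Reaction was started with PIP2 (0.1 mg/ml, 2×) and ATP (50 μM, 2×) and ran 60 min at rt. ADP formed was read by ADP-Glo luminescence, and IC50 came from a 4-parameter fit.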

PI3Kγ = target: T2, PI3Kγ (Homo sapiens, UniProt P48736); experiment: PI3Kγ cellular assay in THP-1 cells (AKT pS473 AlphaLISA); type: cell-based; details: Table 1, rhMCP-1 stimulated AKT pS473, read-out: cellular potency (PI3Kγ IC50)
T2 construct: host or cells: THP-1
Procedure, shortened: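 Serum-starved THP-1 cells (1.8×10^5/well, serum-free DMEM) treated with compounds from 4 nM to 30 μM in 2% DMSO, then stimulated and lysed.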

T2 sequence (P48736 whole entry): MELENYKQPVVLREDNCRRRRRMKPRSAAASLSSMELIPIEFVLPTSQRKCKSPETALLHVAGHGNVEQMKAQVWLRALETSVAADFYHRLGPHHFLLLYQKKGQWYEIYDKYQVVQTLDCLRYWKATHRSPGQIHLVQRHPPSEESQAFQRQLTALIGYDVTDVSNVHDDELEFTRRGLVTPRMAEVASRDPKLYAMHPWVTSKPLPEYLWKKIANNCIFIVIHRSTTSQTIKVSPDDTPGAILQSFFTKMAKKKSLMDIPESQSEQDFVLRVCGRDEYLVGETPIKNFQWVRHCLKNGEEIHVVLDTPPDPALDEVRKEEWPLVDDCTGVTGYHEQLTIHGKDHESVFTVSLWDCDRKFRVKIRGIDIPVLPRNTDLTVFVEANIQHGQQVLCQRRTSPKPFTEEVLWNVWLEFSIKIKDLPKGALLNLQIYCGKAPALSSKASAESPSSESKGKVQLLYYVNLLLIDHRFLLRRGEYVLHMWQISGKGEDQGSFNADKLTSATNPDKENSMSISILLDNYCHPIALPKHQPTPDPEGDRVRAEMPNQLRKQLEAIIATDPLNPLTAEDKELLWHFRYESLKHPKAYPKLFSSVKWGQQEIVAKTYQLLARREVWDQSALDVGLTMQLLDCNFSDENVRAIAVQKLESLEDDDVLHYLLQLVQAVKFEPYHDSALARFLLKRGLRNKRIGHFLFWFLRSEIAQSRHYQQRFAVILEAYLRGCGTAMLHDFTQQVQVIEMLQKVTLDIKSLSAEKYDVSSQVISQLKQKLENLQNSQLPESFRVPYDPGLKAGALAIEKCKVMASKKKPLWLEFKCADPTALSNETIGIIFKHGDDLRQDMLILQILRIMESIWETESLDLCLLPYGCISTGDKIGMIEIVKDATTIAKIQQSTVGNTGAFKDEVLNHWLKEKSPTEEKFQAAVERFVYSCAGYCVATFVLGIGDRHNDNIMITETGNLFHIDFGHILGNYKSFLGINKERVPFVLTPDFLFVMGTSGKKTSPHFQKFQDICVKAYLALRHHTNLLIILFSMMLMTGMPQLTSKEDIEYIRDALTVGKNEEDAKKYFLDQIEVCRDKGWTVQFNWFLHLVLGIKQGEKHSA
T1 sequence (P48736 whole entry): as above

Compound: C[C@@H](C1CC1)N1Cc2cc(-c3ccn4nc(N)c(C(=O)NC5(C#N)CCC5)c4n3)cc(NS(C)(=O)=O)c2C1=O [Example 81, 2-Amino-N-(1-cyanocyclobutyl)-5-{2-[(1S)-1-cyclopropylethyl]-7-methanesulfonamido-1-oxo-2,3-dihydro-1H-isoindol-5-yl}pyrazolo[1,5-a]pyrimidine-3-carboxamide]
IC50 (PI3Kγ (p120γ)): < 100 nM
IC50 (PI3Kγ): < 100 nM

Compound: C[C@@H](C1CC1)N1Cc2cc(-c3ccn4nc(N)c(C(=O)N[C@H]5C[C@](C)(O)C5)c4n3)cc(NS(C)(=O)=O)c2C1=O [Example 82, 2-Amino-5-{2-[(1S)-1-cyclopropylethyl]-7-methanesulfonamido-1-oxo-2,3-dihydro-1H-isoindol-5-yl}-N-[trans-3-hydroxy-3-methylcyclobutyl]pyrazolo[1,5-a]pyrimidine-3-carboxamide]
IC50 (PI3Kγ (p120γ)): < 100 nM
IC50 (PI3Kγ): < 100 nM

Compound: C[C@@H](C1CC1)N1Cc2cc(-c3ccn4nc(N)c(C(=O)NC[C@H]5C[C@H](O)C5)c4n3)cc(NS(C)(=O)=O)c2C1=O [Example 85, 2-Amino-5-{2-[(1S)-1-cyclopropylethyl]-7-methanesulfonamido-1-oxo-2,3-dihydro-1H-isoindol-5-yl}-N-{[trans-3-hydroxycyclobutyl]methyl}pyrazolo[1,5-a]pyrimidine-3-carboxamide]
IC50 (PI3Kγ (p120γ)): < 100 nM
IC50 (PI3Kγ): < 100 nM

Compound: C[C@@H](C1CC1)N1Cc2cc(-c3ccn4nc(N)c(C(=O)N[C@@H]5CC[C@@H](O)C5)c4n3)cc(NS(C)(=O)=O)c2C1=O [Example 86, 2-Amino-5-{2-[(1S)-1-cyclopropylethyl]-7-methanesulfonamido-1-oxo-2,3-dihydro-1H-isoindol-5-yl}-N-[(1R,3R)-3-hydroxycyclopentyl]pyrazolo[1,5-a]pyrimidine-3-carboxamide]
IC50 (PI3Kγ (p120γ)): < 100 nM
IC50 (PI3Kγ): < 100 nM

Compound: C[C@H](CO)NC(=O)c1c(N)nn2ccc(-c3cc4c(c(NS(C)(=O)=O)c3)C(=O)N([C@@H](C)C3CC3)C4)nc12 [Example 93, 2-Amino-5-{2-[(1S)-1-cyclopropylethyl]-7-methanesulfonamido-1-oxo-2,3-dihydro-1H-isoindol-5-yl}-N-[(2R)-1-hydroxypropan-2-yl]pyrazolo[1,5-a]pyrimidine-3-carboxamide]
IC50 (PI3Kγ (p120γ)): < 100 nM
IC50 (PI3Kγ): < 100 nM

Compound: C[C@@H](C1CC1)N1Cc2cc(-c3ccn4nc(N)c(C(=O)NC(C)(C)CO)c4n3)cc(NS(C)(=O)=O)c2C1=O [Example 94, 2-Amino-5-{2-[(1S)-1-cyclopropylethyl]-7-methanesulfonamido-1-oxo-2,3-dihydro-1H-isoindol-5-yl}-N-(1-hydroxy-2-methylpropan-2-yl)pyrazolo[1,5-a]pyrimidine-3-carboxamide]
IC50 (PI3Kγ (p120γ)): < 100 nM
IC50 (PI3Kγ): < 100 nM

Compound: CC(C)[C@H](CO)NC(=O)c1c(N)nn2ccc(-c3cc4c(c(NS(C)(=O)=O)c3)C(=O)N([C@@H](C)C3CC3)C4)nc12 [Example 96, 2-Amino-5-{2-[(1S)-1-cyclopropylethyl]-7-methanesulfonamido-1-oxo-2,3-dihydro-1H-isoindol-5-yl}-N-[(2R)-1-hydroxy-3-methylbutan-2-yl]pyrazolo[1,5-a]pyrimidine-3-carboxamide]
IC50 (PI3Kγ (p120γ)): < 100 nM
IC50 (PI3Kγ): < 100 nM

Compound: C[C@@H](C1CC1)N1Cc2cc(-c3ccn4nc(N)c(C(=O)N[C@@H](CO)C5CC5)c4n3)cc(NS(C)(=O)=O)c2C1=O [Example 97, 2-Amino-N-((R)-1-cyclopropyl-2-hydroxyethyl)-5-(2-((S)-1-cyclopropylethyl)-7-(methylsulfonamido)-1-oxoisoindolin-5-yl)pyrazolo[1,5-a]pyrimidine-3-carboxamide]
IC50 (PI3Kγ (p120γ)): < 100 nM
IC50 (PI3Kγ): < 100 nM

Compound: C[C@@H](NC(=O)c1c(N)nn2ccc(-c3cc4c(c(NS(C)(=O)=O)c3)C(=O)N([C@@H](C)C3CC3)C4)nc12)c1cnn(C)c1 [Example 98, 2-Amino-5-{2-[(1S)-1-cyclopropylethyl]-7-methanesulfonamido-1-oxo-2,3-dihydro-1H-isoindol-5-yl}-N-[(1R)-1-(1-methyl-1H-pyrazol-4-yl)ethyl]pyrazolo[1,5-a]pyrimidine-3-carboxamide]
IC50 (PI3Kγ (p120γ)): < 100 nM
IC50 (PI3Kγ): < 100 nM

Compound: C[C@@H](C1CC1)N1Cc2cc(-c3ccn4nc(N)c(C(=O)Nc5cccnc5)c4n3)cc(NS(C)(=O)=O)c2C1=O [Example 99, (S)-2-Amino-5-(2-(1-cyclopropylethyl)-7-(methylsulfonamido)-1-oxoisoindolin-5-yl)-N-(pyridin-3-yl)pyrazolo[1,5-a]pyrimidine-3-carboxamide]
IC50 (PI3Kγ (p120γ)): < 100 nM
IC50 (PI3Kγ): < 100 nM

Further lines, results first:

IC50 (PI3Kγ (p120γ)): < 100 nM
IC50 (PI3Kγ): < 100 nM
Compound: C[C@@H](C1CC1)N1Cc2cc(-c3ccn4nc(N)c(C(=O)N[C@]5(C)C[C@@H](O)C5)c4n3)cc(NS(C)(=O)=O)c2C1=O [Example 83, 2-Amino-5-{2-[(1S)-1-cyclopropylethyl]-7-methanesulfonamido-1-oxo-2,3-dihydro-1H-isoindol-5-yl}-N-[trans-3-hydroxy-1-methylcyclobutyl]pyrazolo[1,5-a]pyrimidine-3-carboxamide]

IC50 (PI3Kγ (p120γ)): < 100 nM
IC50 (PI3Kγ): < 100 nM
Compound: CO[C@H]1C[C@H](NC(=O)c2c(N)nn3ccc(-c4cc5c(c(NS(C)(=O)=O)c4)C(=O)N([C@@H](C)C4CC4)C5)nc23)C1 [Example 84, 2-Amino-5-{2-[(1S)-1-cyclopropylethyl]-7-methanesulfonamido-1-oxo-2,3-dihydro-1H-isoindol-5-yl}-N-[trans-3-methoxycyclobutyl]pyrazolo[1,5-a]pyrimidine-3-carboxamide]

IC50 (PI3Kγ (p120γ)): < 100 nM
IC50 (PI3Kγ): < 100 nM
Compound: C[C@@H](C1CC1)N1Cc2cc(-c3ccn4nc(N)c(C(=O)NC5CC5)c4n3)cc(NS(C)(=O)=O)c2C1=O [Example 87, 2-Amino-N-cyclopropyl-5-{2-[(1S)-1-cyclopropylethyl]-7-methanesulfonamido-1-oxo-2,3-dihydro-1H-isoindol-5-yl}pyrazolo[1,5-a]pyrimidine-3-carboxamide]

IC50 (PI3Kγ (p120γ)): < 100 nM
IC50 (PI3Kγ): < 100 nM
Compound: C[C@@H](C1CC1)N1Cc2cc(-c3ccn4nc(N)c(C(=O)N[C@@H]5COC[C@H]5O)c4n3)cc(NS(C)(=O)=O)c2C1=O [Example 88, 2-Amino-5-{2-[(1S)-1-cyclopropylethyl]-7-methanesulfonamido-1-oxo-2,3-dihydro-1H-isoindol-5-yl}-N-[(3R,4S)-4-hydroxyoxolan-3-yl]pyrazolo[1,5-a]pyrimidine-3-carboxamide]

IC50 (PI3Kγ (p120γ)): < 100 nM
IC50 (PI3Kγ): < 100 nM
Compound: C[C@@H](C1CC1)N1Cc2cc(-c3ccn4nc(N)c(C(=O)N[C@H]5CC[C@@](C)(O)CC5)c4n3)cc(NS(C)(=O)=O)c2C1=O [Example 89, 2-Amino-5-{2-[(1S)-1-cyclopropylethyl]-7-methanesulfonamido-1-oxo-2,3-dihydro-1H-isoindol-5-yl}-N-[cis-4-hydroxy-4-methylcyclohexyl]pyrazolo[1,5-a]pyrimidine-3-carboxamide]

IC50 (PI3Kγ (p120γ)): < 100 nM
IC50 (PI3Kγ): < 100 nM
Compound: C[C@@H](C1CC1)N1Cc2cc(-c3ccn4nc(N)c(C(=O)N[C@H]5CC[C@](O)(C(F)(F)F)CC5)c4n3)cc(NS(C)(=O)=O)c2C1=O [Example 90, 2-Amino-5-{2-[(1S)-1-cyclopropylethyl]-7-methanesulfonamido-1-oxo-2,3-dihydro-1H-isoindol-5-yl}-N-[cis-4-hydroxy-4-(trifluoromethyl)cyclohexyl]pyrazolo[1,5-a]pyrimidine-3-carboxamide]

IC50 (PI3Kγ (p120γ)): < 100 nM
IC50 (PI3Kγ): < 100 nM
Compound: C[C@@H](C1CC1)N1Cc2cc(-c3ccn4nc(N)c(C(=O)N[C@H]5CC[C@H](C(C)(C)O)CC5)c4n3)cc(NS(C)(=O)=O)c2C1=O [Example 91, 2-Amino-5-{2-[(1S)-1-cyclopropylethyl]-7-methanesulfonamido-1-oxo-2,3-dihydro-1H-isoindol-5-yl}-N-[trans-4-(2-hydroxypropan-2-yl)cyclohexyl]pyrazolo[1,5-a]pyrimidine-3-carboxamide]

IC50 (PI3Kγ (p120γ)): < 100 nM
IC50 (PI3Kγ): < 100 nM
Compound: C[C@@H](C1CC1)N1Cc2cc(-c3ccn4nc(N)c(C(=O)N[C@H]5CC[C@H](C6(O)CC6)CC5)c4n3)cc(NS(C)(=O)=O)c2C1=O [Example 92, 2-Amino-5-{2-[(1S)-1-cyclopropylethyl]-7-methanesulfonamido-1-oxo-2,3-dihydro-1H-isoindol-5-yl}-N-[trans-4-(1-hydroxycyclopropyl)cyclohexyl]pyrazolo[1,5-a]pyrimidine-3-carboxamide]

IC50 (PI3Kγ (p120γ)): < 100 nM
IC50 (PI3Kγ): < 100 nM
Compound: C[C@@H](C1CC1)N1Cc2cc(-c3ccn4nc(N)c(C(=O)NCCC(C)(C)O)c4n3)cc(NS(C)(=O)=O)c2C1=O [Example 95, 2-Amino-5-{2-[(1S)-1-cyclopropylethyl]-7-methanesulfonamido-1-oxo-2,3-dihydro-1H-isoindol-5-yl}-N-(3-hydroxy-3-methylbutyl)pyrazolo[1,5-a]pyrimidine-3-carboxamide]

IC50 (PI3Kγ (p120γ)): < 100 nM
IC50 (PI3Kγ): < 100 nM
Compound: C[C@@H](C1CC1)N1Cc2cc(-c3ccn4nc(N)c(C(=O)Nc5ccncc5)c4n3)cc(NS(C)(=O)=O)c2C1=O [Example 100, (S)-2-Amino-5-(2-(1-cyclopropylethyl)-7-(methylsulfonamido)-1-oxoisoindolin-5-yl)-N-(pyridin-4-yl)pyrazolo[1,5-a]pyrimidine-3-carboxamide]

IC50 (PI3Kγ (p120γ)): < 100 nM
IC50 (PI3Kγ): < 100 nM
Compound: Cc1cc(NC(=O)c2c(N)nn3ccc(-c4cc5c(c(NS(C)(=O)=O)c4)C(=O)N([C@@H](C)C4CC4)C5)nc23)ccn1 [Example 101, (S)-2-Amino-5-(2-(1-cyclopropylethyl)-7-(methylsulfonamido)-1-oxoisoindolin-5-yl)-N-(2-methylpyridin-4-yl)pyrazolo[1,5-a]pyrimidine-3-carboxamide]
